Test results: patent US8106055B2, “Substituted amide compounds” (Gruenenthal GmbH, priority 2007, dated 2012)

How the values were obtained:
[1] = target: T1, human μ opiate receptor (Homo sapiens, UniProt P35372); test: Affinity for the human μ opiate receptor ([3H]-naloxone displacement, CHO-K1 receptor membrane preparation, SPA); type: binding; settings: test concentration of 1 μM
T1 construct: purchased PerkinElmer Life Sciences, Zaventem, Belgium RB-HOM; host or cells: CHO-K1 cells (membrane preparation)
In short: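 Displacement of 1 nmol/l [3H]-naloxone measured by SPA counting after 90 min at room temperature, using human μ receptor CHO-K1 membrane preparation in Tris-HCl buffer with 0.06% BSA. Test substances at 1 μmol/l give % inhibition; dilution series yield IC50, then Ki (Cheng-Prusoff); non-specific binding with 100 μmol/l naloxone.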

[2] = target: T2, serotonin (5-HT) reuptake (Rattus norvegicus, UniProt P31652); test: Inhibition of serotonin (5HT) reuptake in synaptosomes from rat brain; type: biochemical; settings: test concentration of 10 μM
T2 construct: synaptosomes are freshly isolated from areas of the rat brain; from tissue; host or cells: rat brain synaptosomes (P2 fraction)
In short: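 Compounds screened at 10 μM and reported as percent inhibition of serotonin uptake. Uptake measured in a freshly prepared P2 synaptosomal fraction from rat brain.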

T1 sequence (P35372 whole entry): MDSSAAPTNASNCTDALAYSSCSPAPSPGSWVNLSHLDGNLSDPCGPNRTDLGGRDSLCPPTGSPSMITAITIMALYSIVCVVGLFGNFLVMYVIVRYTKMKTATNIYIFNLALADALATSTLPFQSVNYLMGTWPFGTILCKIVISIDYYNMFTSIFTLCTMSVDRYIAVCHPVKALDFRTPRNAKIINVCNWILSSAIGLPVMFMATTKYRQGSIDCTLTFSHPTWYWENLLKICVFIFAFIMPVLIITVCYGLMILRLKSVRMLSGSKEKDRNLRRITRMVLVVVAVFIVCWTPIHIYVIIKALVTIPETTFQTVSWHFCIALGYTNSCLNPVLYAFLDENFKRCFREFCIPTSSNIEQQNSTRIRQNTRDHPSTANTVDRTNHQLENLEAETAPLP
T2 sequence (P31652 whole entry): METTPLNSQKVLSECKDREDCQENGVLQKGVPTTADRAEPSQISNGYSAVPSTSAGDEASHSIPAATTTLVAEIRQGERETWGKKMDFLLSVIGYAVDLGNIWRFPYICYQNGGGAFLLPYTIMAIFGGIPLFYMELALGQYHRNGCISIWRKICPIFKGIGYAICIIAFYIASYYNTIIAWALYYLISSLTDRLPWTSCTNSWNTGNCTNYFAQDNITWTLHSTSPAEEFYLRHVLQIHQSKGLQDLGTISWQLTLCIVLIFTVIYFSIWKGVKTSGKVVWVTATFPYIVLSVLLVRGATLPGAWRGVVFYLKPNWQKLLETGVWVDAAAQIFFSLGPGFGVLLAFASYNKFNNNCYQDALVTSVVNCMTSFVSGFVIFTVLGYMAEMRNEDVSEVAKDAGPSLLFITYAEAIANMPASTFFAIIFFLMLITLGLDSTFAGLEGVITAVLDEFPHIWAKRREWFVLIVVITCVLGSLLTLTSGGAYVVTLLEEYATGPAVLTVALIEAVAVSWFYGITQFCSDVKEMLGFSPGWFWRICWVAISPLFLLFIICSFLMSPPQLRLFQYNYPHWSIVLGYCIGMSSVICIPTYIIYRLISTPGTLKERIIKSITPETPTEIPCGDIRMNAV

Row | Compound | μ (binding on the μ opioid receptor, % inhibition) [1] | 5-HT (inhibition of reuptake of serotonin, % inhibition) [2]
1 | CN(C)C(c1cccc(F)c1)C1CCC(CNC(=O)COCCN(Cc2ccccc2)S(=O)(=O)c2ccccc2)CC1 (stereo not shown) [Example 296] | 64% | 96%
2 | CN(C)C(c1cccc(F)c1)C1CCC(NC(=O)COCCN(C)S(=O)(=O)c2cccc(C(F)(F)F)c2)CC1 (stereo not shown) [Example 297] | 74% | 86%
3 | COc1cc(C)c(S(=O)(=O)N(C)CCOCC(=O)NCC2CCC(C(c3ccc(Cl)cc3)N(C)C)CC2)c(C)c1C (stereo not shown) [Example 298] | 64% | 79%
4 | CN(C)C(c1ccc(Cl)cc1)C1CCC(CNC(=O)COC2CCN(S(=O)(=O)c3ccccc3)C2)CC1 (stereo not shown) [Example 299] | 63% | 103%
5 | CN(C)C(c1ccccc1)C1CCC(CNC(=O)COC2CCN(S(=O)(=O)c3ccccc3)CC2)CC1 (stereo not shown) [Example 300] | 66% | 94%
6 | CN(C)C(c1ccc(Cl)cc1)C1CCC(CNC(=O)COC2CCCN(S(=O)(=O)c3ccccc3)C2)CC1 (stereo not shown) [Example 301] | 69% | 92%
7 | CN(C)C(c1cccc(F)c1)C1CCC(CNC(=O)COCCN(C)S(=O)(=O)c2cccc(C(F)(F)F)c2)CC1 (stereo not shown) [Example 302] | 75% | 92%
8 | CN(C)C(c1cccc(F)c1)C1CCC(CNC(=O)COCCN(C)S(=O)(=O)c2ccc(OC(F)(F)F)cc2)CC1 (stereo not shown) [Example 303] | 66% | 83%
9 | Cc1ccc(S(=O)(=O)N2CCC(OCC(=O)NCC3CCC(C(c4ccc(Cl)cc4)N(C)C)CC3)C2)cc1 (stereo not shown) [Example 304] | 64% | 88%
10 | Cc1ccc(S(=O)(=O)N2CCC(OCC(=O)NCCC3CCC(C(c4ccc(Cl)cc4)N(C)C)CC3)C2)cc1 (stereo not shown) [Example 305] | 63% | 88%
11 | Cc1ccc(S(=O)(=O)N(C)CCOCC(=O)NCCC2CCC(C(c3ccc(Cl)cc3)N(C)C)CC2)cc1 (stereo not shown) [Example 306] | 60% | 91%
12 | COc1cc(C)c(S(=O)(=O)N2CCC(OCC(=O)NCCC3CCC(C(c4cccc(F)c4)N(C)C)CC3)C2)c(C)c1 (stereo not shown) [Example 307] | 73% | 97%
13 | CN(C)C(c1cccc(F)c1)C1CCC(CNC(=O)COCCN2CCN(S(=O)(=O)c3ccccc3)CC2)CC1 (stereo not shown) [Example 308] | 60% | 93%
14 | CN(C)C(c1cccc(F)c1)C1CCC(CNC(=O)COC2CCCN(S(=O)(=O)c3ccccc3)C2)CC1 (stereo not shown) [Example 309] | 69% | 94%
15 | CCN(CCOCC(=O)NCC1CCC(C(c2ccc(Cl)cc2)N(C)C)CC1)S(=O)(=O)c1c(C)cc(OC)c(C)c1C (stereo not shown) [Example 310] | 61% | 83%
16 | COc1ccc(S(=O)(=O)N2CCCCC2COCC(=O)NCCC2CCC(C(c3ccc(Cl)cc3)N(C)C)CC2)cc1 (stereo not shown) [Example 311] | 67% | 95%
17 | COc1ccc(S(=O)(=O)N2CCCCC2CCOCC(=O)NCC2CCC(C(c3ccc(Cl)cc3)N(C)C)CC2)cc1 (stereo not shown) [Example 312] | 61% | 89%
18 | COc1ccc(S(=O)(=O)N2CCCC2COCC(=O)NCC2CCC(C(c3cccc(F)c3)N(C)C)CC2)cc1 (stereo not shown) [Example 313] | 71% | 93%
19 | CN(C)C(c1ccc(Cl)cc1)C1CCC(CNC(=O)COCCN(C)S(=O)(=O)c2cccc(C(F)(F)F)c2)CC1 (stereo not shown) [Example 314] | 64% | 93%
20 | COc1cc(C)c(S(=O)(=O)N(C)CCOCC(=O)NCCC2CCC(C(c3ccc(Cl)cc3)N(C)C)CC2)c(C)c1C (stereo not shown) [Example 317] | 62% | 88%
21 | CN(C)C(c1ccc(Cl)cc1)C1CCC(CNC(=O)COCCN(C)S(=O)(=O)c2c(Cl)cc(Cl)cc2Cl)CC1 (stereo not shown) [Example 318] | 65% | 91%
22 | COc1cc(C)c(S(=O)(=O)N2CCC(CCOCC(=O)NCC3CCC(C(c4cccc(F)c4)N(C)C)CC3)CC2)c(C)c1C (stereo not shown) [Example 319] | 71% | 87%

Row | Compound | μ (binding on the μ opioid receptor, % inhibition) [1] | 5-HT (inhibition of reuptake of serotonin, % inhibition) [2]
23 | COc1cc(C)c(S(=O)(=O)N2CCN(CCOCC(=O)NCCC3CCC(C(c4ccc(Cl)cc4)N(C)C)CC3)CC2)c(C)c1C (stereo not shown) [Example 320] | 65% | 98%
24 | COc1ccc(S(=O)(=O)N2CCCCC2COCC(=O)NCC2CCC(C(c3ccc(Cl)cc3)N(C)C)CC2)cc1 (stereo not shown) [Example 321] | 70% | 86%
25 | COc1ccc(S(=O)(=O)N2CCCCC2COCC(=O)NC2CCC(C(c3cccc(F)c3)N(C)C)CC2)c(OC)c1 (stereo not shown) [Example 322] | 70% | 78%
26 | COc1ccc(S(=O)(=O)N2CCC(OCC(=O)NC3CCC(C(c4cccc(F)c4)N(C)C)CC3)C2)cc1OC (stereo not shown) [Example 323] | 67% | 91%
27 | COc1ccc(S(=O)(=O)N(C)CCOCC(=O)NCC2CCC(C(c3ccc(Cl)cc3)N(C)C)CC2)cc1 (stereo not shown) [Example 324] | 62% | 83%
28 | CN(C)C(c1cccc(F)c1)C1CCC(CCNC(=O)COCCN2CCN(S(=O)(=O)c3ccccc3)CC2)CC1 (stereo not shown) [Example 325] | 68% | 96%
29 | CN(C)C(c1cccc(F)c1)C1CCC(CCNC(=O)COC2CCCN(S(=O)(=O)c3ccccc3)C2)CC1 (stereo not shown) [Example 326] | 67% | 97%
30 | CCN(CCOCC(=O)NCC1CCC(C(c2ccc(F)cc2)N(C)C)CC1)S(=O)(=O)c1c(C)cc(OC)c(C)c1C (stereo not shown) [Example 327] | 67% | 90%
31 | COc1ccc(S(=O)(=O)N2CCCCC2COCC(=O)NCC2CCC(C(c3cccc(F)c3)N(C)C)CC2)cc1OC (stereo not shown) [Example 329] | 66% | 91%
32 | CN(C)C(c1ccc(F)cc1)C1CCC(NC(=O)COC2CCN(S(=O)(=O)c3cccc(C(F)(F)F)c3)C2)CC1 (stereo not shown) [Example 330] | 54% | 90%
33 | CN(C)C(c1ccc(Cl)cc1)C1CCC(CNC(=O)COC2CCN(S(=O)(=O)c3cccc(C(F)(F)F)c3)C2)CC1 (stereo not shown) [Example 331] | 61% | 84%
34 | Cc1cc(C)c(S(=O)(=O)N2CCC(OCC(=O)NC3CCC(C(c4ccc(F)cc4)N(C)C)CC3)C2)c(C)c1 (stereo not shown) [Example 332] | 58% | 88%
35 | CN(C)C(c1cccc(F)c1)C1CCC(CNC(=O)COCCC2CCN(S(=O)(=O)c3ccccc3)CC2)CC1 (stereo not shown) [Example 333] | 65% | 84%
36 | CN(C)C(c1ccc(F)cc1)C1CCC(CNC(=O)COCCN(C)S(=O)(=O)c2c(Cl)cccc2Cl)CC1 (stereo not shown) [Example 334] | 66% | 83%
37 | CN(C)C(c1cccc(F)c1)C1CCC(NC(=O)COC2CCN(S(=O)(=O)c3ccccc3)CC2)CC1 (stereo not shown) [Example 335] | 58% | 93%
38 | CN(C)C(c1ccc(F)cc1)C1CCC(NC(=O)COCCN(Cc2ccccc2)S(=O)(=O)c2ccccc2)CC1 (stereo not shown) [Example 336] | 59% | 96%
39 | CN(C)C(c1ccc(F)cc1)C1CCC(CCNC(=O)COCC2CCCCN2S(=O)(=O)c2ccc(Cl)c(Cl)c2)CC1 (stereo not shown) [Example 337] | 64% | 96%
40 | COc1ccc(S(=O)(=O)N2CCC(OCC(=O)NCCC3CCC(C(c4ccc(Cl)cc4)N(C)C)CC3)C2)cc1OC (stereo not shown) [Example 338] | 69% | 86%
41 | COc1ccc(S(=O)(=O)N(C)CCOCC(=O)NCCC2CCC(C(c3ccc(Cl)cc3)N(C)C)CC2)cc1OC (stereo not shown) [Example 339] | 63% | 78%
42 | COc1ccc(S(=O)(=O)N(C)CCOCC(=O)NCC2CCC(C(c3cccc(F)c3)N(C)C)CC2)cc1 (stereo not shown) [Example 340] | 69% | 81%
43 | CN(C)C(c1cccs1)C1CCC(NC(=O)COCCN2CCN(S(=O)(=O)c3ccccc3)CC2)CC1 (stereo not shown) [Example 341] | 64% | 85%
44 | CN(C)C(c1ccc(F)cc1)C1CCC(CNC(=O)COCCN(Cc2ccccc2)S(=O)(=O)c2ccccc2)CC1 (stereo not shown) [Example 342] | 57% | 94%
